The values below come from patent publication US5173496A, “Therapeutic preparations containing indazole derivatives” (ICI Pharma, priority 1987, dated 1992).

The test system of assay [1] is carrageenin induced oedema in rat paws. The assay can be described thus: carrageenin induced oedema in rat paws. The format is in vivo. The following applies: dosed orally at 100 mg/kg. An excerpt: A specific known indazolone of formula I which is of particular interest as an inhibitor of 5-LO is, for example, 1,2-dihydro-2-benzylindazol-3-one.
(The carrageenan paw model is a standard test of acute inflammation.)

The test system is the same in assay [2]. The following applies: J. Heterocyclic Chemistry, 1970, 7, 815-820; cited from earlier work.
Assay [3] addresses T1, 5-LO isolated from guinea pig neutrophils (Cavia porcellus, UniProt A0A286X958).
T1 construct: 5-LO isolated from guinea pig neutrophils; from tissue; host or cells: guinea pig neutrophils
T1 sequence (A0A286X958 1-674): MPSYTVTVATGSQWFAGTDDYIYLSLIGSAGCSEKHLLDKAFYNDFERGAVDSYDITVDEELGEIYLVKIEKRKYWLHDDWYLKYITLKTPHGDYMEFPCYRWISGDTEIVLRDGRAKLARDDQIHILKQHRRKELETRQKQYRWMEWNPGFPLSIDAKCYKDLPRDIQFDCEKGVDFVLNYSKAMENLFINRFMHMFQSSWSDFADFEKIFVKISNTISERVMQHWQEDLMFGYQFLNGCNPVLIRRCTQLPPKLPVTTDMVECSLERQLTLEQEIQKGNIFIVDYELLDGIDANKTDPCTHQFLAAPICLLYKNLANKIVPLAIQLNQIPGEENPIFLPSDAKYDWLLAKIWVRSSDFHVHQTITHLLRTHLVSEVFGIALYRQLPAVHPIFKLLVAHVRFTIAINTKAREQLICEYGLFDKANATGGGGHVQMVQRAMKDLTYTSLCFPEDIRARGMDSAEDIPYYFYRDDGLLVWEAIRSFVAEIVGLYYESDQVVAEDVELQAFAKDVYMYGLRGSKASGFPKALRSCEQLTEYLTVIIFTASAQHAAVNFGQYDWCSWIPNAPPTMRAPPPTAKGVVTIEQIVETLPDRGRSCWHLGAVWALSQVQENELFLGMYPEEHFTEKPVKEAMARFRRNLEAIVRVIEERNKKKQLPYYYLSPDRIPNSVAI
Put plainly: Test (a): in vitro spectrophotometric enzyme assay, cell free system, 5-LO isolated from guinea pig neutrophils. The format is biochemical. An excerpt:
a) An in vitro spectrophotometric enzyme assay system, which assesses the inhibitory properties of a test compound in a cell free system using 5-LO isolated from guinea pig neutrophils and as described by D. Aharony and R. L. Stein (J. Biol. Chem., 1986, 261(25), 11512-11519). This test provides a measure of the intrinsic inhibitory properties against soluble 5-LO in an extracellular environment.

For assay [4], the target named is T2, cyclooxygenase (Rattus norvegicus, UniProt Q63921).
T2 construct: incubating a test compound with heparinised rat blood; endogenous in cells; host or cells: heparinised rat blood (platelets and leukocytes)
T2 sequence (Q63921 27-602): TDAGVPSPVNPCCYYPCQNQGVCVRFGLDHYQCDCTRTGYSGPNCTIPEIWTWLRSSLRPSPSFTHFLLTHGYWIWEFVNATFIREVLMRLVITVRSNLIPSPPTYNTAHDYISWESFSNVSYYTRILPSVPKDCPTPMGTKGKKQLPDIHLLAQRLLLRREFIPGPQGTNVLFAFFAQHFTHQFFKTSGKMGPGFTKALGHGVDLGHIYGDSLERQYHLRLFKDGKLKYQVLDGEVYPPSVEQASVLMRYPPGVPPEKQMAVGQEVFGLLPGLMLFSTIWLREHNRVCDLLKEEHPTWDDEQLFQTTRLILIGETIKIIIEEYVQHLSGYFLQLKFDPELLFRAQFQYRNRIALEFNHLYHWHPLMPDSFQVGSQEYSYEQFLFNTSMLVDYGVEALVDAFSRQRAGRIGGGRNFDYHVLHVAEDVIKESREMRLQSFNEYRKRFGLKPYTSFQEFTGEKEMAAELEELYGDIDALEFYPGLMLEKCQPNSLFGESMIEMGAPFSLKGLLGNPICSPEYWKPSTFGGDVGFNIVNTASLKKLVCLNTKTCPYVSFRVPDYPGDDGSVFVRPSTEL
The assay can be described thus: Test (b): in vitro heparinised rat blood, A23187 challenge, PGE2 radioimmunoassay (cyclooxygenase). The format is cell-based. As for the experimental part:
(§1) b) An in vitro assay system involving incubating a test compound with heparinised rat blood, prior to challenge with the calcium ionophore A23187 and then indirectly measuring the inhibitory effects on 5-LO by assaying the amount of LTB4 using the specific radioimmunoassay described by Carey and Forder (F. Carey and R. A. Forder, Brit. J. Pharmacol. 1985, 84, 34P) which involves the use of a protein-LTB4 conjugate produced using the procedure of Young et alia (Prostaglandins, 1983, 26(4), 605-613). The effects of a test compound on the enzyme cyclooxygenase (which is involved in the alternative metabolic pathway for arachidonic acid and gives rise to prostaglandins, thromboxanes and related metabolites) may be measured at the same time using the specific radioimmunoassay for prostaglandin E2 (PGE2) described by Carey and Forder (see above). This test provides an indication of the effects of a test compound against 5-LO and also cyclooxygenase in the presence of blood cells and proteins. It permits the selectivity of the inhibitory effect on 5-LO or cyclooxygenase to be assessed.

The target of assay [5] is T3, 5-LO (Rattus norvegicus, UniProt P12527).
T3 construct: challenge with A23187 and radioimmunoassay of LTB4 and PGE2; endogenous in cells; host or cells: blood collected after oral dosing, heparinised
T3 sequence (P12527 1-673): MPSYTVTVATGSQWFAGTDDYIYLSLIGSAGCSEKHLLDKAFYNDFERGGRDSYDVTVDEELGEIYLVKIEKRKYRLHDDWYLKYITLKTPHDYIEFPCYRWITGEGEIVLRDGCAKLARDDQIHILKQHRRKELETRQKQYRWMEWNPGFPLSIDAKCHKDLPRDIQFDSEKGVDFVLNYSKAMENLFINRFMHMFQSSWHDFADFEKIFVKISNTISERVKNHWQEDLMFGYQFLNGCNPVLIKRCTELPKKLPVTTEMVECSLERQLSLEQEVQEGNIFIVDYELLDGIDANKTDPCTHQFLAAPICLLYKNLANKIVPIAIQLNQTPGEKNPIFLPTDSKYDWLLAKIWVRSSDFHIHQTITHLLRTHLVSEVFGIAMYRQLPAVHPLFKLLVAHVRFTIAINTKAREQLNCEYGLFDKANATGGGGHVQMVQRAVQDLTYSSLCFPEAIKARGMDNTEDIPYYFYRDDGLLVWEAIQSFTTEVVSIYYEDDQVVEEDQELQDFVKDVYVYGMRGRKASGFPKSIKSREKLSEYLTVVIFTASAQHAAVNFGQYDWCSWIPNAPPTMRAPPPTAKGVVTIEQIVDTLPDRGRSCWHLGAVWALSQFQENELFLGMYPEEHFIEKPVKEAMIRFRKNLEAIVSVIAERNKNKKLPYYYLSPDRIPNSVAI
Put plainly: Test (c): ex vivo assay, oral dosing, blood A23187 challenge, LTB4 radioimmunoassay. The format is in vivo. The method, then:
as §1
(§2) c) An ex vivo assay system, which is a variation of test (b) above, involving administration of a test compound (usually orally as a suspension in carboxymethylcellulose)blood collection, heparinisation, challenge with A23187 and radioimmunoassay of LTB4 and PGE2. […]

Assay [6] concerns the target T3, 5-LO. Put plainly: Test (b): in vitro heparinised rat blood, A23187 challenge, LTB4 radioimmunoassay (5-LO). The format is cell-based. The method, then:
as §1

The target in assay [7] is T2, cyclooxygenase. The assay can be described thus: Test (c): ex vivo assay, oral dosing, blood A23187 challenge, PGE2 radioimmunoassay. The format is in vivo. The method, then:
as §1, §2

As a reminder, the IC50 is the point on the concentration scale where inhibition reaches its midpoint. As a reminder, the ED50 is the dose that gives a 50% effect, or the effect in half of the subjects.

With `O=c1c2ccccc2[nH]n1Cc1ccccc1` [1,2-dihydro-2-benzylindazol-3-one], the “significant effects in carrageenin induced oedema in rat paws” value in assay [1] was “unable to detect any significant effects”. Moreover, the “anti-inflammatory properties in carrageenin induced oedema in rat paws” value in assay [2] is given as “weak anti-inflammatory properties”.
In the case of `O=c1c2ccccc2[nH]n1Cc1cccc2ccccc12` [Example 1, 1,2-dihydro-2-(1-naphthylmethyl)-3H-indazol-3-one], the figures for the half-maximal inhibitory concentration (IC50) (in assay [3]; on cyclooxygenase [4]; against 5-LO [6]) were 1.7 µM, 100 µM and 0.8 µM, respectively. At 5-LO [5], this compound showed a 50% effective dose (ED50) of 30 mg/kg.
As for `O=c1c2ccccc2[nH]n1Cc1cccnc1` [Example 24], the ED50 was over 100 mg/kg on cyclooxygenase [7] and under 10 mg/kg at 5-LO [5]. Also, the half-maximal inhibitory concentration (IC50) was over 100 µM against cyclooxygenase [4] and under 5 µM at 5-LO [6].
